The text below walks through data of ChEMBL document CHEMBL1201862, “PubChem BioAssay data set” (2004).

The structures appear in SMILES notation. Activity calls are given as the source filed them.

Test [1] in a line: viability inhibitors of stage V gametocytes – luminescence, dose response (AID 1117278).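 Further: gametocytes exposed to compound for 24 hours.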 Type of test: functional, cell-based.
Test [2] can be described thus: viability loss in human Jurkat cells – cell-based, luminescence, cytotoxicity control for P. falciparum gametocyte viability project, dose response (AID 1117277).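 Further: potency reflects loss of cellular ATP meaning fewer viable cells.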 Type of test: functional.
Test [3] addresses T1, Calpain-2 catalytic subunit (Sus scrofa, UniProt P43367).
T1 sequence (P43367 whole entry): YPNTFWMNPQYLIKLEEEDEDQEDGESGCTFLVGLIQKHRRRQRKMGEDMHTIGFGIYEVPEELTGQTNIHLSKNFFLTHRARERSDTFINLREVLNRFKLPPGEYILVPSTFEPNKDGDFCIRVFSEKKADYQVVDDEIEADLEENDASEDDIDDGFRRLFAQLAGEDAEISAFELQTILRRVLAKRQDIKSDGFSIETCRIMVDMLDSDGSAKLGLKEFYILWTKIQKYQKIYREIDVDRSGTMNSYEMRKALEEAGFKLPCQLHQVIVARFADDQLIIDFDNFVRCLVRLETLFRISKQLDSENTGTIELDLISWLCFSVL
The test is described as follows: m-calpain protease blockers, concentration series – biochemical, fluorogenic peptide substrate, dose response (AID 1420). Type of test: functional.

A short description of test [4]: IC50 of Artemis nuclease activity blockers – biochemical, fluorescence intensity, dose response (AID 720701).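 Further: Artemis endonuclease enzyme.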 Type of test: functional.
A short description of test [5]: viability of HCT116 lacking mutant beta-catenin – cell-based, human colon tumor, dose response (AID 1045).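 Further: HCT116 colon tumor cells with beta catenin knocked out; cells exposed to compound for 60 hours.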 Type of test: functional.
Test [6] has as its target T2, Mannose-6-phosphate isomerase (Homo sapiens, UniProt P34949).
T2 sequence (P34949 whole entry): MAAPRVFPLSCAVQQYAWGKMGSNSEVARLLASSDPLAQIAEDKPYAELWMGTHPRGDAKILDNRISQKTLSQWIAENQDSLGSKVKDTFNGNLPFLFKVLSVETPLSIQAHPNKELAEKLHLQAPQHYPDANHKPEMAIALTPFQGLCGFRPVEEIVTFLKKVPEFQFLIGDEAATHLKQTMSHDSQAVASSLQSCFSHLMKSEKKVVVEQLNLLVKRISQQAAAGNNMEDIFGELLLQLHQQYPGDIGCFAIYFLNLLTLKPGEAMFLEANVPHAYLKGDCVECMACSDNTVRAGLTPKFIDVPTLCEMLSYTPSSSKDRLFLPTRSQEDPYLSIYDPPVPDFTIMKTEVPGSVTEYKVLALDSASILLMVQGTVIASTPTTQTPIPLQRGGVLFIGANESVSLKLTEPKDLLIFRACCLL
The test is described as follows: MPI inhibition at elevated mannose 6-phosphate – biochemical, fluorescence intensity, high mannose 6-phosphate, primary screen (AID 1220).

A short description of test [7]: viability of PTEN-deleted HCT116 cells – cell-based, HCT116 PTEN knockout, dose response (AID 1047).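 Further: HCT116 colon tumor cells with PTEN knocked out; cells exposed to compound for 60 hours before readout; potency for loss of cell viability measured by luminescence.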 Type of test: functional.
The target of test [8] is DNA (cytosine-5)-methyltransferase 1 (Homo sapiens, UniProt P26358). The test is described as follows: inhibition of DNA methylation by DNMT1 – biochemical, fluorescent molecular beacon, confirmation (AID 602386). Type of test: functional.
Test [9] relates to HEK293. Kind of test: EBV LMP1 TES2 canonical NF-kB signalling blockers – cell-based, HEK293, luciferase, cherry-pick, dose response (AID 588343). Type of test: functional. The note with it: Homo sapiens.
Test [10] concerns the target Hepatocyte nuclear factor 4-alpha (Homo sapiens, UniProt P41235). Type of test: functional, cell-based.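 Further: biochemical luminescence-based dose-response counterscreen measuring inhibition of HNF4 dimerization, run alongside a screen for blockers of ABHD5–perilipin-5 interaction; split luciferase complementation of HNF4 fusion proteins in cell lysate measuring dimerization.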
Test [11] has as its target T3, Hexokinase HKDC1 (Homo sapiens, UniProt Q2TB90).
T3 sequence (Q2TB90 whole entry): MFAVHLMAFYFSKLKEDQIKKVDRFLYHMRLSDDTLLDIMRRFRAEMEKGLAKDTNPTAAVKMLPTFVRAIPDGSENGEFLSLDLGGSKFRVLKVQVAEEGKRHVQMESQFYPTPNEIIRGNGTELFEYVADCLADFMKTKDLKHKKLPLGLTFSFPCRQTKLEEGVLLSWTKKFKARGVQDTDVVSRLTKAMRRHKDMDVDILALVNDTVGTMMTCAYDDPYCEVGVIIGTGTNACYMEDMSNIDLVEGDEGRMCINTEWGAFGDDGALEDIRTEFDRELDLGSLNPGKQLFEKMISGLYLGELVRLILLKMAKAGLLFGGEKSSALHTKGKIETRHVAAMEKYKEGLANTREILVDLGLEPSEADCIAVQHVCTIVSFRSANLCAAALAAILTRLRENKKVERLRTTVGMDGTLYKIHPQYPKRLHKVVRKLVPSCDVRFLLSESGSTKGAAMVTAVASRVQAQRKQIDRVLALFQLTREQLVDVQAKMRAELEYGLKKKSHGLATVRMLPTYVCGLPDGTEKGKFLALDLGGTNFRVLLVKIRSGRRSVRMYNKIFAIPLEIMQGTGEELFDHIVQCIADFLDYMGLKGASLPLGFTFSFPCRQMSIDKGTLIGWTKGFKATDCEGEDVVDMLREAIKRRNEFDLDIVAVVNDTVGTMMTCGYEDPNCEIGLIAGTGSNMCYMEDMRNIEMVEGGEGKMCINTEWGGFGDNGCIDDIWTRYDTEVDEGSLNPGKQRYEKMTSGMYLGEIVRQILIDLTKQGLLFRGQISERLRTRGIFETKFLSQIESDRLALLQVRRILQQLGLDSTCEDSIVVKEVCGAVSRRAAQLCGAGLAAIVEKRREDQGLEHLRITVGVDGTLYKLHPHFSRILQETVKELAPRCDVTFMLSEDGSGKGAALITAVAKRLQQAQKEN
The test is described as follows: inhibition of HKDC1 glucose phosphorylation – biochemical, W721R variant, dose response (AID 504729). Type of test: functional.

The target of test [12] is T4, Zinc finger protein mex-5 (Caenorhabditis elegans, UniProt Q9XUB2).
T4 sequence (Q9XUB2 whole entry): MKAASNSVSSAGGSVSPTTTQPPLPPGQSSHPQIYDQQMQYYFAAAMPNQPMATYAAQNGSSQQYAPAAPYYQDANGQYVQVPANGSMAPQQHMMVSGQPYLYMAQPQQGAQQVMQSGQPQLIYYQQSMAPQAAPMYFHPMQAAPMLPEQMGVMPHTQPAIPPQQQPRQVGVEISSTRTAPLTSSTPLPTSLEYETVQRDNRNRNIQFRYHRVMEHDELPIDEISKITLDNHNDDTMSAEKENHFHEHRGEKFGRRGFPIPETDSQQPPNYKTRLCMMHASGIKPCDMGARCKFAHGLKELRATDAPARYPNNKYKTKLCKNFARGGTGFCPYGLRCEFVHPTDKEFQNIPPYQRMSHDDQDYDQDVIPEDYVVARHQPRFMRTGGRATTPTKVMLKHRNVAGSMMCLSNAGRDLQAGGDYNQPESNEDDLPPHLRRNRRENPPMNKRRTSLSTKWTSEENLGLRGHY
The test is described as follows: potency of MEX-5 RNA-binding blockers – biochemical, C. elegans, fluorescence polarization, dose response (AID 1960).

Test [13] is described as follows: alpha-synuclein stem-loop luciferase translation blockers – H4 neuroglioma cells, luminescence, confirmation (AID 1988). Type of test: functional, cell-based.
Test [14] concerns the target Glucose-6-phosphate 1-dehydrogenase (Homo sapiens, UniProt P11413). Kind of test: inhibition of Homo sapiens G6PD, dose series – biochemical, fluorescence, selectivity assay for P. falciparum G6PD inhibitor project, dose response (AID 504792). Type of test: functional.
The nature of test [15]: luciferase reporter signal suppression in cells – H4 neuroglioma cells, luminescence, dose response (AID 1990). Type of test: functional, cell-based.
The nature of test [16]: Luminescence Cell-Based Dose Response HTS to Identify Inhibitors of 5'UTR Stem-Loop Driven Prion Protein mRNA Translation in H4 Neuroglioblastoma Cells. [Related pubchem assays: 1827 (Project Summary), 1813 (Primary HTS)]. Type of test: functional.
Test [17] concerns the target T5, RNA-binding protein pos-1 (Caenorhabditis elegans, UniProt G5EF15).
T5 sequence (G5EF15 whole entry): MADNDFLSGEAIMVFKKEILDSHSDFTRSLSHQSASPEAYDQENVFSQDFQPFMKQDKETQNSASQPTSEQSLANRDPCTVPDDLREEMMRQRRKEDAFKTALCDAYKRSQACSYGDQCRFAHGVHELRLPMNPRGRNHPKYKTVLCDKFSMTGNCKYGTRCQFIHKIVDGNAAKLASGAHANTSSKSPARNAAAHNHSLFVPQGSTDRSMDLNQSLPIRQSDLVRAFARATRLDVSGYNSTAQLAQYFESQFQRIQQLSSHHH
Kind of test: disruptors of C. elegans POS-1 RNA interaction – biochemical, fluorescence polarization, dose response (AID 1964).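 Further: purified POS-1 fused to maltose binding protein made in E. coli; potency of compounds blocking POS-1 binding to fluorescent RNA.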

The nature of test [18]: alpha-synuclein stem-loop translation blockers – luminescence, H4 neuroglioblastoma cells, dose confirmation, confirmation (AID 2454).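 Further: H4 neuroglioblastoma cells carrying an alpha-synuclein 5'UTR luciferase reporter; potency for inhibition of the luciferase signal.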 Type of test: functional, cell-based.
The nature of test [19]: luciferase reporter signal reduction – luminescence, H4-C neuroglioblastoma cells, dose response (AID 2458).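 Further: H4 neuroglioblastoma cells stably carrying a luciferase reporter gene fusion.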 Type of test: functional, cell-based.
The target in test [20] is Protein Tat (Human immunodeficiency virus type 1 group M subtype B (isolate HXB2)(HIV-1), UniProt P04608). Type of test: functional.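 Further: tat binding to TAR RNA read out by fluorescence polarization.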
Test [21] deals with Vero. The test is described as follows: Vero cell viability after compound exposure – synthesized analogs, set II, cytotoxicity control for West Nile virus antiviral project, SAR follow-up (AID 2402). Type of test: functional. The note with it: Chlorocebus sabaeus.

Chain of Protein Tat (P04608 whole entry): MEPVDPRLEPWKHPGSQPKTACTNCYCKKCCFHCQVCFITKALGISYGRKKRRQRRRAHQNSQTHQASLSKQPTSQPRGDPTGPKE
Chain of Hepatocyte nuclear factor 4-alpha (P41235 whole entry, the tested form may be a part): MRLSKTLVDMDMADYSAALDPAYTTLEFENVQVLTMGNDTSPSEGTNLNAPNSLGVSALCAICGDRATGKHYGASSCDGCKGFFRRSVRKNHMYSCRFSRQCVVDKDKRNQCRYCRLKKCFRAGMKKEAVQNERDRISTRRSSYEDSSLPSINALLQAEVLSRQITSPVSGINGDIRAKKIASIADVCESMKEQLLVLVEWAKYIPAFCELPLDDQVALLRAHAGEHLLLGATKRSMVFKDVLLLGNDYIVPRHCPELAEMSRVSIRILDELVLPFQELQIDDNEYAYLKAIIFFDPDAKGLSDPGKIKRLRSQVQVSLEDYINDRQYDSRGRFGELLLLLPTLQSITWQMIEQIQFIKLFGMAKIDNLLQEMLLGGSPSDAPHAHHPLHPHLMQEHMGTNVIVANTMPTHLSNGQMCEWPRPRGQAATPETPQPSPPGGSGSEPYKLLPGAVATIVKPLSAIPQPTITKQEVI
Chain of DNA (cytosine-5)-methyltransferase 1 (P26358 whole entry): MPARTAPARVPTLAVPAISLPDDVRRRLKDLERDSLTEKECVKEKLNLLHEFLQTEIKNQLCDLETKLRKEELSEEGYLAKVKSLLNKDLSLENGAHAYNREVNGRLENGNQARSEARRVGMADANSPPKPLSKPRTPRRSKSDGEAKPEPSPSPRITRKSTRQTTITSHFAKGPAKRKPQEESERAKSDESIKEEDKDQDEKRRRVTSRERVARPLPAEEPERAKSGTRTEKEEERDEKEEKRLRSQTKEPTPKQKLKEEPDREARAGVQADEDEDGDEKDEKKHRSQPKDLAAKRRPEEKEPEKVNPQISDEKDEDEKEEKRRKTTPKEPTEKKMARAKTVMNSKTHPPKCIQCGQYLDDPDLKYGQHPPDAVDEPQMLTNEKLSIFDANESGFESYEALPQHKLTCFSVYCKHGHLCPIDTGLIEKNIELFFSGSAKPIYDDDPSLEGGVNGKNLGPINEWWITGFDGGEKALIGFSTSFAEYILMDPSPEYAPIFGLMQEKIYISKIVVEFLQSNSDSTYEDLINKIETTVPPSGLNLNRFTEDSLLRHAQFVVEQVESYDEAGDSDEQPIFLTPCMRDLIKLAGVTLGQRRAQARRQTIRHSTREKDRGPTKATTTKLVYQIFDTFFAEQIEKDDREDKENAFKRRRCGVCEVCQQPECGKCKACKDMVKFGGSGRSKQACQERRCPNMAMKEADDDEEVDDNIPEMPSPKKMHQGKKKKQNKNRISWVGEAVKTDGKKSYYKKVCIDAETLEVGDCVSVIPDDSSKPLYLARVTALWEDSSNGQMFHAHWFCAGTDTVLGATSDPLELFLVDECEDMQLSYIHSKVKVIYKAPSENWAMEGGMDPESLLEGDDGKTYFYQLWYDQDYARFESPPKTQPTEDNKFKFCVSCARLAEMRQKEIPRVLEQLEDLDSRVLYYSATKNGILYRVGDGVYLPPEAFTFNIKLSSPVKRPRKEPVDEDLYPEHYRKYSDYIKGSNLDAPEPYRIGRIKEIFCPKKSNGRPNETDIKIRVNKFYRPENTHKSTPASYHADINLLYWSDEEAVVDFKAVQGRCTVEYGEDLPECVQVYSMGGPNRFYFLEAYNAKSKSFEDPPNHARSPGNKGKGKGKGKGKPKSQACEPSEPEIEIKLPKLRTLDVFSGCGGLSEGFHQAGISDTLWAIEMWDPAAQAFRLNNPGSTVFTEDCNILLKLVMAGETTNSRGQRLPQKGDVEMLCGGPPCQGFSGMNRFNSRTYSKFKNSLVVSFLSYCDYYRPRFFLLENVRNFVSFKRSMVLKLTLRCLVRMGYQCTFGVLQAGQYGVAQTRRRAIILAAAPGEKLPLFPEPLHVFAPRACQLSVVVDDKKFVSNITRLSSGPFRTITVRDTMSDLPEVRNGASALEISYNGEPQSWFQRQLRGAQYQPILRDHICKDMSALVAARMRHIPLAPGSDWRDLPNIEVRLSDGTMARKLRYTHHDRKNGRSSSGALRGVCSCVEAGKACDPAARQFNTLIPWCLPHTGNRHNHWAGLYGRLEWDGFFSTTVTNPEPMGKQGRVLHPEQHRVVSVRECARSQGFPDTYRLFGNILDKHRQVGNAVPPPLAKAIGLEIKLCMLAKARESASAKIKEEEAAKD
Chain of Glucose-6-phosphate 1-dehydrogenase (P11413 whole entry): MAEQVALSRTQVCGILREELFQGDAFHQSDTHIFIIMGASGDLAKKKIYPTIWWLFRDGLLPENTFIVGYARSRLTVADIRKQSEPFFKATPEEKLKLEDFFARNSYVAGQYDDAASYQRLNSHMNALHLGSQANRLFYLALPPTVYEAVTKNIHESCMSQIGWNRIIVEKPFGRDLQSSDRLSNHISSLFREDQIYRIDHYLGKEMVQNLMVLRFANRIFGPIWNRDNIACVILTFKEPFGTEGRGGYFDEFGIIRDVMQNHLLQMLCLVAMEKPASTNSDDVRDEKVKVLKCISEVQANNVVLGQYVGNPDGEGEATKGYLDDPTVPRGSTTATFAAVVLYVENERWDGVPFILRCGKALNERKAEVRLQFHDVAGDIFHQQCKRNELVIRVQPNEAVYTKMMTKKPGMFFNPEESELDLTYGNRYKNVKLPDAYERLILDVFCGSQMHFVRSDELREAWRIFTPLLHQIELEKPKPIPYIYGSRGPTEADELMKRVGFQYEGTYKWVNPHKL

Turning to `Nc1ccc(-c2cnc(-c3ccc(N)cc3)nc2)cc1`, the IC50 in [1] is > 109 µM (inactive); in test [2], > 83.3 µM (inactive).

Turning to `Cc1oc2c(c1C(=O)c1ccc(Cl)cc1)C(=O)C(=O)c1ccccc1-2`, the IC50 in [3] was < 0.4 µM (not active); in test [4], 1.12 µM (active); in [6] it was > 50 µM (not active); in [8] it was 6.05 µM (active); in test [10], 3.58 µM (active); in [11], 8.83 µM (active). In addition, the EC50 is 2.36 µM (active) in [5] and 2.63 µM (active) in test [7]. Moreover, the AC50 in test [9] was 11.7 µM (active).

Take `Cc1ccc2nc3sc(C(=O)N4CCOCC4)c(N)c3cc2c1`: the EC50 is > 300 µM (inconclusive) in test [12]; 2.37 µM (active) in [13]; 2.01 µM (active) in [15]; < 0.1 µM (active) in test [16]; 46.8 µM (active) in test [17]; 0.927 µM (active) in test [18]. The EC50 in test [19] is > 12 µM (inconclusive). The IC50 in test [14] was > 80 µM (inactive).

In the case of `COc1ccc(C2CC(=O)Oc3cc(OC)ccc32)cc1` (stereo unspecified), the IC50 in test [20] was > 100 µM (active).

`OC1c2c(F)cccc2N=C2CCCN21` (stereo unspecified): the CC50 in test [21] was > 200 µM (active).
